From patent US20220170949A1, “SYSTEM AND METHOD FOR DETECTING THERAPEUTIC AGENTS TO MONITOR ADHERENCE TO A TREATMENT REGIMEN” (ORASURE TECHNOLOGIES, INC., priority 2019, published 2022)
Where two headings read alike, the source gives them in different places.

Experiments:
[1] = system: HIV; settings: PBMCs (Anderson 2012); cited from earlier work
[2] = in vivo, po
Excerpt: Antiretroviral concentrations in whole blood or plasma are potentially useful in monitoring adherence to PrEP.

[3] = in vivo; cited from earlier work
[4] = system: HIV-1; settings: cited from earlier work

Row | Structure (SMILES) | intracellular concentration associated with a 90% reduction in HIV acquisition relative to the placebo arm [1] | window of medication usage reflected by TFV detection in whole blood or plasma [2] | intracellular half-life [3] [h] | plasma half-life [3] [h] | HIV-1 risk reduction corresponding to intracellular tenofovir concentrations ([4]; 2 doses per week) [%] | HIV-1 risk reduction corresponding to intracellular tenofovir concentrations ([4]; 4 doses per week) [%] | HIV-1 risk reduction corresponding to intracellular tenofovir concentrations ([4]; 7 doses per week) [%]
1 | CC(Cn1cnc2c(N)ncnc21)OCP(=O)(O)OP(=O)(O)OP(=O)(O)O (stereo in doubt) [tenofovir-diphosphate] | 16 fmol per million peripheral blood mononuclear cells (PBMCs) | – | – | – | – | – | –
2 | C[C@H](Cn1cnc2c(N)ncnc21)OCP(=O)(O)O [Tenofovir] | – | one to at least seven days | 150 | 17 | 76 | 96 | 99
